Entries after “also recorded” stand apart in the source; their conditions may differ.
Assays:
[1] = tested on: human microvascular endothelial cells (HMVECs); assay: xCELLigence adhesion assay; assay type: cell-based; conditions: VEGF165 50 ng/mL, peptide 3 µM, 1 h, gelatin coat; n = 2–6
Method: The wells of an E-plate (ACEA Biosciences, Inc.) were washed and coated with 0.1% (v/v) gelatin in phosphate-buffered saline (PBS) at 37 °C for 1 h. Following a washing step, wells were incubated with 0.1% (v/v) bovine serum albumin (BSA) in PBS at 37 °C for 1 h. After washing, 50 µL basal MCDB131 medium was added and the plate was allowed to equilibrate at 37 °C. HMVECs were harvested and seeded at 4 × 10^4 cells/well together with 50 ng/mL VEGF165 with or without 0.03, 0.3 or 3 µM of CXCL9(74-103) or 3 µM of CXCL9(86-103) in 100 µL control medium (vide supra). Real-time changes in electrical impedance depicted as cell indices, as measure for cell adhesion and spreading, were analyzed using the xCELLigence® RTCA DP System. The adhesion of HMVECs was analyzed 1 h after seeding.

HMVEC spheroids = assay: Spheroid sprouting assay; assay type: cell-based, human; conditions: FGF-2 10 ng/mL, peptide 3 µM, 16 hours; n = 5 experiments
Method: A 1:5 mixture of endothelial cells (4 × 10^4 cells/mL) and methylcellulose (Sigma-Aldrich, Saint Louis, MO, USA; 12 mg/mL in EBM™-2 basal medium) in EBM™-2 cell culture medium was prepared. Drops of 1 × 10^3 HMVECs were plated on a petri dish and allowed to form single spheroids in hanging droplets at 37 °C, 5% CO2 for 24 h. Spheroids were collected, sedimented by centrifugation and resuspended in a mixture of 24 mg/mL methylcellulose in basal EBM™-2, 1 mg/mL collagen type I (BD Biosciences, San Jose, CA, USA), 2.5 mg/mL NaHCO3 and 10 mM NaOH. The suspension was plated in a 96-well plate and the collagen was allowed to polymerize at 37 °C, 5% CO2 for 30 min. Spheroids were left untreated or stimulated with 0.3 or 3 µM of CXCL9(74-103) or 3 µM of CXCL9(86-103) for 15 min prior to addition of 10 ng/mL FGF-2 or 10 ng/mL EGF in EBM™-2 + 3% (v/v) FCS. In some experiments, HMVECs were pretreated with heparinase II (vide infra). After 16 hours, spheroid sprouting was assessed with an inverted Axiovert 200M microscope (Zeiss, Germany) through a 10× objective. The average number of sprouts was calculated and the average sprout length per spheroid was measured using Fiji software.
Sprouting experiments examining the dependency on HS binding for the inhibitory action of CXCL9(74-103) were performed as described above (vide supra). […]

[2] = tested on: diabetes-induced vascular permeability, Sprague-Dawley rats; assay: Retinal vascular permeability in streptozotocin-induced diabetic rats; assay type: in vivo, rat; conditions: intravitreal, equimolar CXCL9(74-103) 30 µg or CXCL9(86-103) 18 µg, two weeks, n = 12–15
Method: Male Sprague-Dawley rats (210–240 g) were fasted overnight and injected intraperitoneally (i.p.) with streptozotocin (55 mg/kg body weight, dissolved in citrate buffer, pH 4.5) to induce diabetes. After 3 days, the animals were anesthetized, diabetes was confirmed and the vitreous of the right eye was injected with equimolar amounts of CXCL9(74-103) (30 µg), CXCL9(86-103) (18 µg) or PBS (5 µL/injection). Diabetes-induced breakdown of the blood-retinal barrier as a consequence of increased vascular permeability was evaluated in retinas two weeks after streptozotocin injection, as previously described. Briefly, 30 min prior to sacrifice, fluorescein isothiocyanate (FITC)-conjugated dextran of 3-5 kDa (Sigma-Aldrich) was intravenously (i.v.) injected. After collection of a blood sample, rats were perfused with PBS. The retinas were excised, weighed and homogenized. The fluorescence in the retina lysates was measured using a SpectraMax® Gemini™ XPS system. For normalization of the data, the following equation was used to express the obtained results: Retinal FITC-dextran (µg)/retinal weight (g) Plasma FITC-dextran concentration (µg/µL) × circulation time (h)

[3] = tested on: human microvascular endothelial cells (HMVECs); assay: Endothelial cell proliferation assay (MTT or ATP lite); assay type: cell-based; conditions: peptide 3 µM, 3 to 4 days, HMVECs, 1% FCS, mean ± SEM, n ≥ 4
Method: The ability of the CXCL9-derived peptides to inhibit growth factor-induced proliferation of endothelial cells was assessed. HMVECs were seeded at 5 × 10^3 cells/well in EBM™-2 medium containing 1% (v/v) FCS (proliferation medium). After settling of the cells, they were stimulated with EGF, VEGF165 (both 5 ng/mL) or FGF-2 (3 ng/mL) as a single stimulus or in combination with CXCL9(86-103) or CXCL9(74-103) at 0.3 or 3 µM in proliferation medium or left untreated. HMVECs were also treated with 0.3 or 3 µM of CXCL9(74-103) or 3 µM of CXCL9(86-103) alone to assess the effect of CXCL9-derived peptide treatment on spontaneous proliferation. After 3 to 4 days, a 3-(4,5-dimethylthiazol-2-yl)-2,5-diphenyl tetrazolium bromide (MTT) or ATP lite assay was performed. The ATP lite assay was performed according to the manufacturer’s instructions (Perkin Elmer, Waltham, MA). When MTT was used as substrate, the medium was replaced with 200 µL of MTT solution (RPMI without phenol red containing 0.4 g/L MTT) and the cells were incubated at 37 °C and 5% CO2 in the dark for 4 hours. Then, the MTT solution was discarded and the formed formazan crystals were dissolved in 200 µL acidic propanol [0.04 M HCl, 0.1% (v/v) NP-40 in isopropanol] under continuous shaking in the dark for 10 min. The optical densities were measured at 570 nm and 630 nm (reference wavelength).

Question: How did the “VEGF165-induced endothelial cell adhesion” value [1] turn out when KKVLKVRKSQRSRQKKTT [CXCL9(86-103)] was run?
Answer: Its value is “No effect on VEGF-induced adhesion”.

Question: And the “sprout outgrowth induced by FGF-2” value (HMVEC spheroids)?
Answer: Its value is “had no effect on sprout outgrowth induced by FGF-2”.

Question: And the “retinal vascular permeability (FITC-dextran leakage)” value [2]?
Answer: The value was “tended to decrease the vascular leakage, but this was not significant; also recorded: could not significantly improve diabetes-induced vascular leakage”.

Question: What about the EGF-induced proliferation ([3]; EGF 5 ng/mL) of the same sequence?
Answer: Its EGF-induced proliferation is “could not significantly alter”.

Question: What about the FGF-2-induced proliferation ([3]; FGF-2 3 ng/mL) of the same sequence?
Answer: The FGF-2-induced proliferation was “significantly attenuated”.

Question: And the VEGF165-induced proliferation ([3]; VEGF165 5 ng/mL)?
Answer: Its VEGF165-induced proliferation is “could not significantly alter”.

From PMC8534003, “The Chemokine-Based Peptide, CXCL9(74-103), Inhibits Angiogenesis by Blocking Heparan Sulfate Proteoglycan-Mediated Signaling of Multiple Endothelial Growth Factors” (Cancers, 2021)
